Source: publication PMC11974712 (bioRxiv, 2025)

Molecular target: Human Fatty Acid Binding Protein (FABP4) (Homo sapiens, UniProt P15090)
Assay: Binding inhibition assay: displacement of the fluorescent probe ANS from FABP4
Conditions: for binding to FABP4 (in words): ANS displacement

Human Fatty Acid Binding Protein (FABP4), sequence (P15090 whole entry): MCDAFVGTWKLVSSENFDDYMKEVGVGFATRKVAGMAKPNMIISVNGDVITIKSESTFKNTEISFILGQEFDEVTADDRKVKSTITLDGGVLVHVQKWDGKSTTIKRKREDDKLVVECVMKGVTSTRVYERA

Compound | Kd [µM] | binding to FABP4 (in words) | fold increase in affinity relative to hydrogenated analog heptanoic acid (ratio of Kd values)
O=C(O)C(F)(F)C(F)(F)C(F)(F)C(F)(F)C(F)(F)C(F)(F)C(F)(F)C(F)(F)C(F)(F)C(F)(F)C(F)(F)F [PFDoA, Perfluorododecanoic Acid] | < 1 |  | 
CCCCCC(=O)O [Hexanoic Acid] |  | no detectable binding | 
CCCCC(=O)O [Pentanoic Acid] |  | no detectable binding | 
O=C(O)C(F)(F)C(F)(F)C(F)(F)C(F)(F)C(F)(F)C(F)(F)F [PFHpA, Perfluoroheptanoic Acid] | 4.46 ± 0.17 |  | approximately 30 fold
CCCC(=O)O [Butanoic Acid] |  | no detectable binding | 
CCCCCCC(=O)O [Heptanoic Acid] | 145 ± 3.1 |  | 
